In ChEMBL document CHEMBL1135699, “Designing non-peptide peptidomimetics in the 21st century: inhibitors targeting conformational ensembles” (J Med Chem, 2002):
Non-standard residues stand in square brackets, D forms with d. Residues, ends and D or L forms follow the SMILES beside them. *: point of attachment. Sta = CC(C)C[C@H](N)[C@@H](O)CC(=O)O; NHIsopentyl = CC(C)CCN*; X1 = CC(C)CCOC(=O)*

Experiments:
Rhizopuspepsin = target: T1, Rhizopuspepsin (Rhizopus microsporus var. chinensis, UniProt P06026); assay: Inhibitory concentration against Rhizopus chinensis pepsin; assay type: functional
T1 sequence (P06026 whole entry): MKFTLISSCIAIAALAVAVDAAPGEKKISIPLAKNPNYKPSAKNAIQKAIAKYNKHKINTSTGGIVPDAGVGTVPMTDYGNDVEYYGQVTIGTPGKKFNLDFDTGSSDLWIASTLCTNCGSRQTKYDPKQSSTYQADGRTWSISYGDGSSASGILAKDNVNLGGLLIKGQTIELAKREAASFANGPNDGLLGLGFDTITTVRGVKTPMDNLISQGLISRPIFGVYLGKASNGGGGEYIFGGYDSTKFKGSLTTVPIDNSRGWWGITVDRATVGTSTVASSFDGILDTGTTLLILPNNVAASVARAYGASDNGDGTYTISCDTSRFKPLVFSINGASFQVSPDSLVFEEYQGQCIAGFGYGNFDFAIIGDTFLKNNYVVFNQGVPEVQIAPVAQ

Pepsin A [1] = target: Pepsin A (Homo sapiens, UniProt P0DJD9); assay: Inhibition of pepsin
Pepsin A [2] = target: Pepsin A (Sus scrofa, UniProt P00791); assay: Inhibitory concentration against porcine pepsin
Chain of Pepsin A (Sus scrofa, UniProt P00791) (P00791 whole entry): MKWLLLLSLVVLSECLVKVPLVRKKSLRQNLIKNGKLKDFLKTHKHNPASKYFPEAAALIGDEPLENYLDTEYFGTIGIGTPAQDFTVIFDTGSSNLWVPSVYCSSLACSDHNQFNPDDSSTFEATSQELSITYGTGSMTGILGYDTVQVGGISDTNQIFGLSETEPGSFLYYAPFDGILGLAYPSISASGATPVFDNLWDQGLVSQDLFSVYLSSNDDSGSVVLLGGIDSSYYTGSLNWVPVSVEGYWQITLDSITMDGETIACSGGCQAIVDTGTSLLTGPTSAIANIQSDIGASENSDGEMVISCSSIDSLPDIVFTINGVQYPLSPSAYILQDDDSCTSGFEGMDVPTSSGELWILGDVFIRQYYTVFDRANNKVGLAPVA

Chain of Pepsin A (Homo sapiens, UniProt P0DJD9) (P0DJD9 whole entry): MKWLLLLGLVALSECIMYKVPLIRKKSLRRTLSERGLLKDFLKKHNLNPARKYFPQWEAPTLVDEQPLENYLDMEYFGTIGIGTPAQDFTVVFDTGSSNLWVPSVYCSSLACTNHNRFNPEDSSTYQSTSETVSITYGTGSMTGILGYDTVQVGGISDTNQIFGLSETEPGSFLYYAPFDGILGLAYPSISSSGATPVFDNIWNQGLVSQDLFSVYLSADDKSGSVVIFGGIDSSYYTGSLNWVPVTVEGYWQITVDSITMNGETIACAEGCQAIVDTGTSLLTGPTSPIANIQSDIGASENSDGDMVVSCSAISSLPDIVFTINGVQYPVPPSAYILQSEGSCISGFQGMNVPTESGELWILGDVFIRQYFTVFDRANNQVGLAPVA

| Ki (Pepsin A [1]) [nM] | Structure (SMILES) | other results |
| --- | --- | --- |
| – | O=C(COc1ccc([C@H]2CCNC[C@@H]2OCc2ccc(Br)cc2)cc1)c1ccc2ccccc2c1 | IC50 (Rhizopuspepsin): 2000 nM |
| 1200 | CC(C)CCNC(=O)[C@H](C)NC(=O)C[C@](C)(O)[C@H](CC(C)C)NC(=O)[C@@H](NC(=O)[C@@H](NC(=O)OCCC(C)C)C(C)C)C(C)C | – |
| 1.5 | CC(C)CCNC(=O)[C@H](C)NC(=O)C[C@@](C)(O)[C@H](CC(C)C)NC(=O)[C@@H](NC(=O)[C@@H](NC(=O)OCCC(C)C)C(C)C)C(C)C | – |
| – | Brc1ccc(CO[C@H]2CNCC[C@@H]2c2ccccc2)cc1 | IC50 (Pepsin A [2]): 200 nM |
| 0.1 | CC(C)CCNC(=O)[C@H](C)NC(=O)C[C@H](O)[C@H](CC(C)C)NC(=O)[C@@H](NC(=O)[C@@H](NC(=O)OCCC(C)C)C(C)C)C(C)C (X1-VV[Sta]A-NHIsopentyl) | – |
